In paper PMC6874530, “Structural analysis identifies an escape route from the adverse lipogenic effects of liver X receptor ligands” (Communications Biology, 2019):

Legend:
LXRα = target: T1, LXRα (Homo sapiens, UniProt Q13133); assay: Gal4 one hybrid reporter gene (transactivation) assay in U2OS cells, LXRα; assay type: cell-based
T1 construct: expression vectors pSG5-Gal4-LXRα LBD or pSG5-Gal4-LXRβ LBD; expressed in transfected cells; host or cells: U2OS osteosarcoma cells
T1 sequence (Q13133 209-447 limits assumed): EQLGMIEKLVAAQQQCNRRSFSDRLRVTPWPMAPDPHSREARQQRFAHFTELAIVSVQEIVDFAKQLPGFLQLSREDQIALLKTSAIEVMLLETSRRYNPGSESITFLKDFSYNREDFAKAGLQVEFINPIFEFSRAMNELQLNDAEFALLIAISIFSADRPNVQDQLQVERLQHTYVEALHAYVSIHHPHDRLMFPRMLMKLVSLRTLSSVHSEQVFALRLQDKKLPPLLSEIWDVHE
Description: (§1) Transactivation assays were performed in U2OS osteosarcoma cells (ATCC, USA). […] Ligands were added at ten different concentrations 2 h post transfection and the luciferase activity was measured after 40 h.

LXRβ = target: T2, LXRβ (Homo sapiens, UniProt P55055); assay: Gal4 one hybrid reporter gene (transactivation) assay in U2OS cells, LXRβ; assay type: cell-based
T2 construct: expression vectors pSG5-Gal4-LXRα LBD or pSG5-Gal4-LXRβ LBD; expressed in transfected cells; host or cells: U2OS osteosarcoma cells
T2 sequence (P55055 222-460 limits assumed): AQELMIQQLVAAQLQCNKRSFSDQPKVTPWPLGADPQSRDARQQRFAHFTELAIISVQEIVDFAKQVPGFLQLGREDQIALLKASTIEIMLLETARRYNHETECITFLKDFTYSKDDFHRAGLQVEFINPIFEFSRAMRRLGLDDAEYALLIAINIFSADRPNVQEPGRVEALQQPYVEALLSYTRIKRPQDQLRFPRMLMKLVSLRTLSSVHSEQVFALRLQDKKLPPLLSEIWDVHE
Description: as §1

LXRβ/SRC1 = target: T3, LXRβ/SRC1 (Homo sapiens, UniProt P55055); assay: SPR cofactor recruitment, LXRβ LBD binding to immobilized SRC1 coactivator peptide
T3 construct: human his-tagged LXRβ LBD (216-461); His tag; made in house; host or cells: Escherichia coli BL21(DE3)
T3 sequence (P55055 215-460 limits assumed): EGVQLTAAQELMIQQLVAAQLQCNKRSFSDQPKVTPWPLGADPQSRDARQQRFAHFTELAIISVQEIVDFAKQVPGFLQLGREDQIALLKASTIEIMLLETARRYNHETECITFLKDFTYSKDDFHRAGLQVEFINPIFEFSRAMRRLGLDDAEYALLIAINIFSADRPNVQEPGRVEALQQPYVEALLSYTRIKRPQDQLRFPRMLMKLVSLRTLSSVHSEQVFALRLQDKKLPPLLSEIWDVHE
T3 sequence (Q15788 with tags, fused parts or gaps partner limits assumed): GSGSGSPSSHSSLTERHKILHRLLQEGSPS
Description: The peptides carried an N-terminal biotin for surface immobilization on a Xantec NID200M Sensor Chip (NTA-derivatized carboxymethyldextran hydrogel, XanTec bioanalytics GmbH) preloaded with Ni^2+. […] LXRα and LXRβ LBD proteins were serially diluted in SPR running buffer (10 mM HEPES, 150 mM NaCl, and 0.05% Tween 20, pH 7.4) to a broad range of concentrations (0.02–10 µM) and equilibrated with tested compound (50 μM) prior to the sample injection over a modified biosensor surface. LXR-ligand complexes were injected in quick succession for 120 s over immobilized cofactor peptides and reference surfaces along with blank samples followed by 900 s of dissociation. The binding level at equilibrium was monitored for all samples, including the reference sample that contained DMSO at equal amount as tested compounds. All data were normalized to this reference sample in order to quantify the effects on peptide binding without bias by receptor instability. The surface was regenerated with 0.5% (w/v) SDS after each injection. Binding responses in the steady-state region of the sensorgrams were plotted against LXR LBD concentration to determine the overall equilibrium-binding affinity by fitting the data to nonlinear regression (Prism 8; GraphPad).

LXRα LBD [1] = target: T4, LXRα LBD (Homo sapiens, UniProt Q13133); assay: biochemical; details: Receptor-binding affinity pKi LXRα, value (SD, n independent experiments)
T4 sequence (Q13133 200-447): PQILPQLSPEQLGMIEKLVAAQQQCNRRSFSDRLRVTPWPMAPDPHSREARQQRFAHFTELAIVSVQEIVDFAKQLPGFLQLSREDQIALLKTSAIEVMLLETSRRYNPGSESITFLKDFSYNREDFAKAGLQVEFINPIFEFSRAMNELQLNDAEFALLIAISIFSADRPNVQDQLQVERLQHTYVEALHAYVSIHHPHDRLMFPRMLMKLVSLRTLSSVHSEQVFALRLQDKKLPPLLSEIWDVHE
Description: (§5) The compounds were run in triplicate (binding assay) or in quadruplicate (transactivation assay). Standard deviations are indicated for individual experiments run more than once.

LXRβ LBD [2] = target: T5, LXRβ LBD (Homo sapiens, UniProt P55055); assay: biochemical; details: Receptor-binding affinity pKi LXRβ, value (SD, n independent experiments)
T5 sequence (P55055 215-460 limits assumed): T3 sequence (P55055 215-460 limits assumed)
Description: as §5

LXRα LBD [3] = target: T4, LXRα LBD; assay: differential HDX-MS of LXRα LBD (apo vs ligand-bound); parameters: Human his-tagged LXRα LBD (200-447); His tag; made in house; host or cells: Escherichia coli BL21(DE3); details: HDX-MS
Description: (§2) Prior to the deuterium incorporation experiments, 10 µM apo LXR was incubated with 10× excess of ligand or equal volume of DMSO for 30 min at room temperature. In the experiments with cofactors, 15× excess of the SRC1 coactivator peptide and the NCOR1 corepressor peptide were added to the ligand-bound or apo proteins, respectively, and incubated for 30 min at room temperature. […] A fully deuterated sample was generated by incubating protein with 4 M guanidine-HCl in D2O for 30 min at 45 °C. Exchange reactions were performed with a CTC PAL sample handling robot (LEAP Technologies). Labeling times were 30, 60, 180, 600, and 1800 s in the kinetics experiments. Differential HDX of a complete compound selection was measured after 30 and 600 s of labeling time points. Reactions were conducted by incubating 4 µl of LXR with 50 µl of D2O buffer (containing 25 mM Tris-HCl (pD 7.6), 50 mM NaCl, 10% glycerol, and 1 mM TCEP). The exchange reaction was stopped by the addition of 50 µl of quench solution (3 M urea, 0.1% TFA) followed by immediate injection into a Enzymate BEH Pepsin 2.1 × 30 mm Column (Waters, UK) for protein digestion (2 min at 24 °C). Peptic digest was further injected on a Waters nanoACQUITY UPLC System where peptides were first desalted by trapping for 3 min on a VanGuard Pre-Column Acquity UPLC BEH C18 (1.7 μm; 2.1 × 5 mm), and then eluted over a 6-min 5–40% (vol/vol) acetonitrile (containing 0.1% formic acid) gradient into a Waters Synapt G2-Si mass spectrometer. Peptide separation was conducted at 0.1 °C. All exchange reactions were performed in triplicates.
(§3) Peptides from three samples of non-deuterated LXR were identified by using the ProteinLynx Global Server (PLGS Waters, UK). Peptides with an intensity of over 5000, a mass error < 5 ppm, and present in at least two of the three data acquisitions were pooled and imported into the DynamX data analysis software (Waters, UK). After a first round of automated spectral processing by using DynamX, each peptide was inspected manually for suitability for further analysis.
(§4) For pairwise comparison, MEMHDX software was used to identify statistically significant changes of deuterium uptake. For all peptides, a value of relative exchange per amino acid was corrected to back exchange. The mean deuteration level per amino acid was calculated by using Matlab (Mathworks)[69] and subsequently mapped onto the crystal structures with PyMOL (Schrodinger LLC). For structural representation, loop modeling with MOE (Chemical Computing Group Inc.) was applied on 2ACL.pdb file for LXRα LBD, and 1PQC.pdb for LXRβ LBD.

LXRβ LBD [4] = target: T5, LXRβ LBD; assay: differential HDX-MS of LXRβ LBD (apo vs ligand-bound); parameters: human his-tagged LXRβ LBD (216-461); His tag; made in house; host or cells: Escherichia coli BL21(DE3); details: after 30 s of deuterium exchange
Description: as §2, §3, §4

## C[C@H](CC[C@@H]1OC1(C)C)[C@H]1CC[C@H]2[C@@H]3CC=C4C[C@@H](O)CC[C@]4(C)[C@H]3CC[C@]12C [24,25EC, 24(S),25-epoxycholesterol, reference compound]
LXRα
  agonist activity in the Gal4 reporter gene assay, LXRα: No signal was observed
LXRα; U2OS cells, Gal4-LXRα LBD, value (SD, n), read-out: LXRα transactivation pEC50 (converted)
  EC50: > 50.1 µM
LXRβ
  agonist activity in the Gal4 reporter gene assay, LXRβ: No signal was observed
LXRβ; LXRβ transactivation pEC50, U2OS cells, Gal4-LXRβ LBD, value (SD, n)
  EC50: > 50.1 µM
LXRβ/SRC1
  Kd: 2.5 µM
LXRα LBD [1]
  Ki: 0.275 µM
LXRβ LBD [2]
  Ki: 0.132 µM
LXRα LBD [3]
  stabilization of LXRα H12: did not stabilize LXRα H12
LXRβ LBD [4]
  protection of LXRβ H11–H12 from deuterium exchange: 10%
